How the values were obtained:
[1] = system: patient having deep corneal abrasion; experiment: Example C: saline-based drops for a patient having deep corneal abrasion; format: in vivo, human; conditions: 5% w/w drop to each eye twice a day
Source text: A saline-based composition for local administration, according to the present invention, is made comprising:
A patient having deep corneal abrasion applies the drop to each eye twice a day.

[2] = system: human subject suffering from rheumatoid arthritis; experiment: Example A: tablet given to a human subject suffering from rheumatoid arthritis; format: in vivo; conditions: three tablets (15 mg compound each) per day orally for 2 years, 60 kg person
Protocol: A tablet composition for oral administration, according to the present invention, is made comprising:
A human subject weighing 60 kg (132 lbs), suffering from rheumatoid arthritis, is treated by a method of this invention. Specifically, for 2 years, a regimen of three tablets per day is administered orally to said subject.

[3] = system: human subject with a premetastatic tumor; experiment: Example G: parenteral suspension injected next to a premetastatic tumor; format: in vivo; conditions: about 2.0 mL of 100 mg/mL suspension injected beside the tumor twice daily; after 30 days
Protocol: A composition for parenteral administration is made comprising:
The above ingredients are mixed, forming a suspension. Approximately 2.0 mL of the suspension is administered, via injection, to a human subject with a premetastatic tumor. The injection site juxtaposes the tumor. This dosage is repeated twice daily, for approximately 30 days.

[4] = system: human subject suffering from osteoarthritis; experiment: Example B: capsule given to a human subject suffering from osteoarthritis; format: in vivo; conditions: capsule containing 70 mg daily for 5 years, 90 kg person
Protocol: A capsule for oral administration, according to the present invention, is made comprising:
A human subject weighing 90 kg (198 lbs.), suffering from osteoarthritis, is treated by a method of this invention. Specifically, for 5 years, a capsule containing 70 mg of the compound of Example 3 is administered daily to said subject.

[5] = system: patient suffering from chemical burns; experiment: Example D: topical composition for a patient suffering from chemical burns; format: in vivo, human; conditions: 0.20% w/v topical composition at each dressing change (b.i.d.)
Source text: A topical composition for local administration, according to the present invention, is made comprising:
A patient suffering from chemical burns applies the composition at each dressing change (b.i.d.).

asthma sufferer = experiment: Example E: inhalation aerosol for an asthma sufferer; format: in vivo, human; conditions: 5.0% w/v aerosol, 0.01 mL sprayed into the mouth while inhaling
Protocol: An inhalation aerosol composition, according to the present invention, is made comprising: [table] An asthma sufferer sprays 0.01 mL via a pump actuator into the mouth while inhaling. Asthma symptoms are diminished.

With COc1ccc(-c2ccc(S(=O)(=O)NC(C(=O)O)C3CCC(O)CC3)cc2)cc1 (centres unmarked) [Example 1, N-{[4′-Methoxy-(1,1′-biphenyl)-4-yl]-sulfonylamino}-(4-hydroxycyclohexan-1-yl)-acetic Acid] the “healing of deep corneal abrasion” value [1] was “speeded” and the visual sequelae [1] was “no visual sequelae”.

With COc1ccc(-c2ccc(S(=O)(=O)NC(C(=O)O)C3CCCC(N(Cc4ccccc4)S(C)(=O)=O)C3)cc2)cc1 (centres unmarked) [Example 31, N-{[4′-methoxy-(1,1′-biphenyl)-4-yl]-sulfonyl}-amino-[3-(N-benzyl-N-methanesulfonylamino)-cyclohexan-1-yl]-acetic acid] the “inflammation at the end of the treatment period” value [2] was “reduced inflammation”, the “mobility at the end of the treatment period” value [2] was “improved mobility without concomitant pain” and the “symptoms of the disease” value [3] was “subside”.

O=C(O)[C@H](NS(=O)(=O)c1ccc(-c2ccc(Br)cc2)cc1)C1CCC2(CC1)OCCCO2 [Example 3, (R)-N-{[4′-bromo-(1,1′-biphenyl)-4-yl]-sulfonyl}-amino-(1,5-dioxa-spiro[5.5]undec-9-yl)-acetic] was tested, and the “advancement of erosion/fibrillation of the articular cartilage (x-ray, arthroscopy and/or MRI)” value [4] was “no further advancement” and the scarring [5] was “substantially diminished”.

For COc1ccc(-c2ccc(S(=O)(=O)NC(C(=O)O)C3CCCC(N(C)C(C)=O)C3)cc2)cc1 (centres unmarked) [Example 33, N-{[4′-methoxy-(1,1-biphenyl)-4-yl]-sulfonyl}-amino-[3-(N-methyl-N-acetylamino)-cyclohexan-1-yl]-acetic Acid], the asthma symptoms (asthma sufferer) was “diminished”.
